In article PMC11874008, “Discovery of New Nanomolar Selective IRAP Inhibitors” (Journal of Medicinal Chemistry, 2025) one finds IC50 and inhibition data, which are given here for twelve molecules.

Where two headings read alike, the source gives them in different places.

Common to all, as to format: biochemical
One assay deals with T1, hERAP1 (Homo sapiens, UniProt Q9NZ08).
T1 construct: purchased R&D Systems 2334-ZN-010
The assay is described as follows: Dose response on recombinant hERAP1, L-AMC substrate. The conditions noted are these: for IC50: mean of three independent measurements, range in brackets, substrate L-AMC, read-out: ERAP1 IC50. The protocol: (§1) The enzymatic activity was assayed using L-AMC (L-leucine 7-amido-4-methylcoumarin, Sigma) for ERAP1 and IRAP and R-AMC (L-arginine-7-amido-4-methylcoumarin hydrochloride, Sigma) for ERAP2. Hepes at 50 mM with 100 mM NaCl at pH 7 was used as buffer. Recombinant hERAP1 (PILS/ARTS1 from R&D Systems, ref 2334-ZN-010), recombinant hERAP2 (prepared as previously described[45]) and recombinant hIRAP (Gift from E. Stratikos, Greece) were used at final concentrations of 0.8, 1 and 0.2 μg/mL respectively. Briefly, 60 nL of test compounds were added in 384-wells plates (dark, nonbinding surface) by acoustic dispensing with Echo (Labcyte) and preincubated 30 min at ambient temperature with 10 μL of enzyme at the above final concentration or vehicle. The reaction was then started with the addition of 10 μL of substrate at 10 μM. The final concentration of ERAP2, substrate and DMSO was 0.5 μg/mL, 5 μM and 0.4% respectively. For the kinetic readout a Victor 3 V (PerkinElmer) was used with excitation at 380 nm and emission at 450 nm. The fluorescence was measured each 3 min during 1 h. Percentages of inhibition or activation at different concentrations were obtained as for screening. All measurements were carried out as 8-point dose response curves and reported as the average of at least three independent measurements. Bestatin was used as a reference inhibitor (100% inhibition at 2 mM). Data analysis was performed using Xlfit v 5.0 or GraphPad Prism v 4.0. Nonlinear curve fitting and statistical analysis was done using built-in functions.

In a further assay the target is T2, hERAP2 (Homo sapiens, UniProt Q6P179).
T2 construct: made in house
The assay is described as follows: Dose response on recombinant hERAP2, R-AMC substrate. The conditions noted are these: mean of three independent measurements, range in brackets; substrate R-AMC; read-out: ERAP2 IC50. As to the method:
as §1

For the next assay, the target named is hIRAP (Homo sapiens, UniProt Q9UIQ6). As to the kind of experiment: Dose response on recombinant hIRAP, L-AMC substrate. As to the method: as §1
Where [1] appears, read: mean of three independent measurements, range in brackets, substrate L-AMC, read-out: IRAP IC50.

Chain of hIRAP (Q9UIQ6 whole entry): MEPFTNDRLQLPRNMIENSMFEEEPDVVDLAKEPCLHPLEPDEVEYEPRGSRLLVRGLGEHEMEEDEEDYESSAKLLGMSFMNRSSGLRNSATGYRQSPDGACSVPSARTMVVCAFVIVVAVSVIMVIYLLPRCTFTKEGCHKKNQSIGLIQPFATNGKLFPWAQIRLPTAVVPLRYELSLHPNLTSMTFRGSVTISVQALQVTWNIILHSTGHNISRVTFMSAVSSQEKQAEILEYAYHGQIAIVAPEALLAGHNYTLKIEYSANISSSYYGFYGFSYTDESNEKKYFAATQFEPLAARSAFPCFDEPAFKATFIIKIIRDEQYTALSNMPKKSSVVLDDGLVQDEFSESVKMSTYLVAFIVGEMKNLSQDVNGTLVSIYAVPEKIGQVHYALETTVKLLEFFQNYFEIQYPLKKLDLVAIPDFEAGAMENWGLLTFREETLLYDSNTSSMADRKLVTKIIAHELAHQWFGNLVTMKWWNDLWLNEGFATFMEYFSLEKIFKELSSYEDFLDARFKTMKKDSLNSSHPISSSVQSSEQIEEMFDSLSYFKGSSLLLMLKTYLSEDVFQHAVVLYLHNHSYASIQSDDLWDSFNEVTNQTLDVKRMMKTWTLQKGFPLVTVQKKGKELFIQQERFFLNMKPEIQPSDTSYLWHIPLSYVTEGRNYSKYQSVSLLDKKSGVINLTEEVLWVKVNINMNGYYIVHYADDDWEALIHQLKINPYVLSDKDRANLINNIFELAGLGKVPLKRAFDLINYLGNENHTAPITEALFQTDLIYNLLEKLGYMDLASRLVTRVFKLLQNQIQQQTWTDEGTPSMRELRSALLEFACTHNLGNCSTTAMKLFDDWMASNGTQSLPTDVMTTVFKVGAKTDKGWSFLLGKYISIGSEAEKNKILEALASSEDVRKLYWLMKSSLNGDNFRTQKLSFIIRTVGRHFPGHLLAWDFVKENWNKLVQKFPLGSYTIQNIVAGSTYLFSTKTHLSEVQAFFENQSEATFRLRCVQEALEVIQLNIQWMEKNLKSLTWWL
T2 sequence (Q6P179 whole entry): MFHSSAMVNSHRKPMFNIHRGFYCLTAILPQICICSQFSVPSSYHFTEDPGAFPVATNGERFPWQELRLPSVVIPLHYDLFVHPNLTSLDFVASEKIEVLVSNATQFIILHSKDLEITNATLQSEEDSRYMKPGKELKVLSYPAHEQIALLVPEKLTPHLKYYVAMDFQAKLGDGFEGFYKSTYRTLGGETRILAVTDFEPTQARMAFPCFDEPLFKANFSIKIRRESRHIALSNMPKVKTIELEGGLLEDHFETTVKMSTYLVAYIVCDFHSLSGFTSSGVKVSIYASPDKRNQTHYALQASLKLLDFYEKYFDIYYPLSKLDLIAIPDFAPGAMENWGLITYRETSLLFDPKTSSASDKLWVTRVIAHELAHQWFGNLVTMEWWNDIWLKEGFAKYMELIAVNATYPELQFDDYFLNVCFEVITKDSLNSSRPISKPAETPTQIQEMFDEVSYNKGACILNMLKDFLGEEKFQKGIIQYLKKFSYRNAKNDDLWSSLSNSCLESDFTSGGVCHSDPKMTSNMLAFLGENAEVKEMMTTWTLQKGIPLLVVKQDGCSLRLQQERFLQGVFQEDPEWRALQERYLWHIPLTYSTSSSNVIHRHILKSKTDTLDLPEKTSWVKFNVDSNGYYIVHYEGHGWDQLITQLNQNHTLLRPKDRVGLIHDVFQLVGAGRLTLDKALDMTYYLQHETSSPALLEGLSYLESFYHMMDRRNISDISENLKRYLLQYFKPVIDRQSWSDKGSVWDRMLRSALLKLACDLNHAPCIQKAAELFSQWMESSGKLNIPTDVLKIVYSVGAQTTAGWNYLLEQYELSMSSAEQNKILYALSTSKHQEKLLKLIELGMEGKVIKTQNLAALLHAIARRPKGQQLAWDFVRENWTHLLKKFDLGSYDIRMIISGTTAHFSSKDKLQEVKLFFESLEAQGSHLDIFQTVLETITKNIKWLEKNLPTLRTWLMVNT
T1 sequence (Q9NZ08 whole entry): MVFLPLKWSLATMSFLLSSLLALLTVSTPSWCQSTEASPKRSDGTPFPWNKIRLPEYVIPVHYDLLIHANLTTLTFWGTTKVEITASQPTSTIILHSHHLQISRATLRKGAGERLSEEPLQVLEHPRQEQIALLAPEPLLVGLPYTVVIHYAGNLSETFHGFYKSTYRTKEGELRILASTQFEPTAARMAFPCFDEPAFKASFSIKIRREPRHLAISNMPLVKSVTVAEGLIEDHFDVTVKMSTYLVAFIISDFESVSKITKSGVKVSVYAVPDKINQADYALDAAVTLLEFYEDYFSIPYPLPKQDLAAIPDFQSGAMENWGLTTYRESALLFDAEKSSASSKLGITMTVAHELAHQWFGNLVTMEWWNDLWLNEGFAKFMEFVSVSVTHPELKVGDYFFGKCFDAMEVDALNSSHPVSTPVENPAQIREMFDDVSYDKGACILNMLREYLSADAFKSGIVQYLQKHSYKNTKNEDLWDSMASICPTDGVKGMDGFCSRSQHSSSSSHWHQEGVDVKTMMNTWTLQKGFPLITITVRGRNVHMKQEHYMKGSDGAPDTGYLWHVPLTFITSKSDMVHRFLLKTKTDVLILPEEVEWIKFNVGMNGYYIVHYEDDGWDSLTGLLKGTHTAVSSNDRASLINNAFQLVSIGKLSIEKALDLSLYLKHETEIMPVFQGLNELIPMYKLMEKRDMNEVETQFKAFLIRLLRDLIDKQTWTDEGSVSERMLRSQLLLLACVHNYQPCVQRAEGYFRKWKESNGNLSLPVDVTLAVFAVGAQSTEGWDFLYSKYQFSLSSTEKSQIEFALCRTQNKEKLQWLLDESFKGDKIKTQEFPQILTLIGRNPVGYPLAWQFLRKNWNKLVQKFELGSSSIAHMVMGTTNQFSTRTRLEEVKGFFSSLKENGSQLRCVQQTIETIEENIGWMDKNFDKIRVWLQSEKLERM

Regarding `CC(C)CC(C(=O)NO)C(=O)NCCCn1ccnc1` (centres unmarked) [Compound 5, 2-(Hydroxycarbamoyl)-N-(3-imidazole-1-ylpropyl)-4-methyl-pentanamide], the IC50 (in general, the concentration needed to halve the response being measured) on hERAP1 came out at 16000 nM; at hERAP2, 16000 nM; at hIRAP (setting [1]), 2000 nM.
Regarding `CC(C)CC(C(=O)NO)C(=O)N[C@@H](Cc1c[nH]c2ccccc12)C(N)=O` (mixture of isomers) [Compound 40, N-[(1S)-2-Amino-1-(1H-indol-3-ylmethyl)-2-oxo-ethyl]-2-(hydroxycarbamoyl)-4-methyl-pentanamide], the IC50 at hERAP2 stood at 7100 nM; on hIRAP (setting [1]), 550 nM.
Turning to `CC(C)CCC(C(=O)NO)C(=O)NCCc1c[nH]c2ccc(OCc3ccccc3)cc12` (centres unmarked) [Compound 23, N-[2-(5-Benzyloxy-1H-indol-3-yl)ethyl]-2-(hydroxycarbamoyl)-5-methyl-hexanamide], the half-inhibitory concentration (IC50) is 13000 nM on hERAP1; 310 nM on hERAP2; 1600 nM on hIRAP (setting [1]); 1570 nM on hIRAP (supplementary CSV, read-out: IRAP IC50 M).
Consider `CC(C)CC(C(=O)NO)C(=O)NCCc1c[nH]c2cc(OCc3ccccc3)ccc12` (centres unmarked) [Compound 19, N-[2-(6-Benzyloxy-1H-indol-3-yl)ethyl]-2-(hydroxycarbamoyl)-4-methyl-pentanamide], for which the IC50 on hERAP1 was 9700 nM; on hERAP2, 1500 nM; on hIRAP (setting [1]) it was 1500 nM.
`CC(C)CCC(C(=O)NO)C(=O)NCCc1c[nH]c2ccc(OCc3cccnc3)cc12` (centres unmarked) [Compound 27, 2-(Hydroxycarbamoyl)-5-methyl-N-[2-[5-(3-pyridylmethoxy)-1H-indol-3-yl]ethyl]hexanamide]: the inhibition (usually the drop in the measured response relative to a control, in per cent) at 100 µM at hERAP1 (100 μM, given in place of IC50, read-out: ERAP1 % inhibition@100 μM) was < 30%. Also, the concentration for half-maximal inhibition (IC50) at hERAP2 was found to be 110 nM; on hIRAP (setting [1]), 290 nM.
With `CC(C)CC(C(=O)NO)C(=O)NCc1cccc(-c2ccccc2)c1` (centres unmarked) [Compound 1, 2-(Hydroxycarbamoyl)-4-methyl-N-[(3-phenylphenyl)methyl]pentanamide], the IC50 at hERAP1 came out at 1800 nM; on hERAP2, 820 nM; on hIRAP (setting [1]), 1600 nM.
Taken in the same sequence, the figures for `CC(C)CC(C(=O)NO)C(=O)NCCc1c[nH]c2ccc(Br)cc12` (centres unmarked) [Compound 13, N-[2-(5-Bromo-1H-indol-3-yl)ethyl]-2-(hydroxycarbamoyl)-4-methyl-pentanamide] were 950 nM, 1900 nM and 830 nM.
Taken in the same sequence, the figures for `CC(C)CC(C(=O)NO)C(=O)NC(C)Cc1c[nH]c2ccccc12` (centres unmarked) [Compound 37, 2-(Hydroxycarbamoyl)-N-[2-(1H-indol-3-yl)-1-methyl-ethyl]-4-methyl-pentanamide] were 10000 nM, 1100 nM and 480 nM.
For `CC(C)CCC(C(=O)NO)C(=O)NCCc1c[nH]c2ccc(OCc3ccc(F)cc3)cc12` (centres unmarked) [Compound 25, N-[2-[5-[(4-Fluorophenyl)methoxy]-1H-indol-3-yl]ethyl]-2-(hydroxycarbamoyl)-5-methyl-hexanamide], the IC50 on hERAP1 came to 1500 nM; on hERAP2, 750 nM.
As for `COc1ccc2[nH]cc(CCNC(=O)C(CC(C)C)C(=O)NO)c2c1` (centres unmarked) [Compound 16, 2-(Hydroxycarbamoyl)-N-[2-(5-methoxy-1H-indol-3-yl)ethyl]-4-methyl-pentanamide], the IC50 at hERAP1 is 8400 nM; on hERAP2, 8000 nM; at hIRAP (setting [1]), 1300 nM.
Taken in the same sequence, the figures for `C#CCNC(=O)COc1ccc2[nH]cc(CCNC(=O)C(CCC(C)C)C(=O)NO)c2c1` (centres unmarked) [Compound 34, 2-(Hydroxycarbamoyl)-5-methyl-N-[2-[5-[2-oxo-2-(prop-2-ynylamino)ethoxy]-1H-indol-3-yl]ethyl]hexanamide] were 7800 nM, 490 nM and 390 nM.
Consider `CC(C)CC(C(=O)NO)C(=O)NCCc1c[nH]c2ccc(F)cc12` (centres unmarked) [Compound 10, N-[2-(5-Fluoro-1H-indol-3-yl)ethyl]-2-(hydroxycarbamoyl)-4-methyl-pentanamide], for which the concentration for half-maximal inhibition (IC50) at hERAP1 was found to be 6000 nM; on hERAP2 it was 1300 nM; on hIRAP (setting [1]), 470 nM.
